Patent US8183228B2, “Anticoagulant antithrombotic dual inhibitors comprising a biotin label” (MSD OSS B.V. Netherlands, priority 2005, dated 2012)
Where a name gives a salt, the structure may show the parent alone.

Tests used:
[1] = system: human platelet rich plasma; assay: Inhibition of human platelet aggregation induced by ADP (PRP); format: cell-based
Protocol: The final concentration is 0.38% sodium citrate.
The optical density (OD620) is then measured at 620 nm. […] This is to verify the stability of the platelets (absence of spontaneous platelet aggregation). […] Between two measurements, the plate is shaking for 40 seconds at 1,000 rpm. Each test compound is investigated in at least 2 experiments using PRP from different volunteers.
(§1) The mean OD at each compound concentration (including vehicle) is calculated at t=0 min and t=10 min. The percentage inhibition at each concentration is calculated using the formula: […]

[2] = system: collagen induced platelet aggregation; assay: In vivo neutralization: collagen induced platelet aggregation (thrombocytopenia) model; conditions: guinea pig; for neutralization of the platelet inhibitory activity by avidin: avidin 10 mg/kg just prior to collagen infusion
Protocol: 4. In Vivo Neutralization of the Antithrombotic Activity
An intravascular infusion of a collagen suspension induces platelet aggregation and causes transient thrombocytopenia in rats. This test is used to evaluate the influence of a test compound on the severity of thrombocytopenia induced by collagen in rats.
In the first experiment male guinea pigs were s.c. treated with compound 10 at a dose of 75 nmol/kg or vehicle at 4 hours before collagen infusion. In a second experiment compounds 12 and 17 were s.c. administered at a dose of 100 nmol/kg at the same time-point. Male guinea pigs were anaesthetized by i.m. administration of Ketamine+Sedamun (90+10 mg/kg, respectively). After 15 minutes one of the common carotid arteries was dissected free and cannulated with a PE 50 cannula (Clay Adams). Two blood samples of 0.5 mL were collected in plastic vials containing 25 μL 0.20 M Na2EDTA solution. The cannula was then connected to a syringe containing 0.25 mg/mL collagen suspension (Hormon Chemie, Munich, West Germany, diluted with isotonic buffer of pH 2.8). This suspension was administered via an infusion of 225 μL during 30 seconds. Then the syringe was disconnected and 2 blood samples of 0.5 mL were taken at 85 and 95 seconds after the start of the collagen infusion. Then the animals were killed with euthasate after which the number of platelets per sample were counted with a Sysmex blood cell counter model KX-21. In case avidin was used, 10 mg/kg of avidin was i.v. administered at t=4 h after s.c. administration of compound 10, 12 or 17 after which collagen was infused within 5 minutes.
After counting the number of platelets in the collected blood samples the decreased number of platelets is calculated by dividing the mean platelet number of the blood samples obtained at t=85 and 95 seconds by the mean value of the blood samples obtained at t=0. The test was carried out with n=4.

[3] = system: washed human platelets; assay: Inhibition of human platelet aggregation induced by TRAP (washed platelets); format: cell-based
Protocol: This aggregation can be determined by measuring the optical density of the WPL. The in vitro test described here is used to analyze the activity of a test compound to inhibit TRAP-induced aggregation of human platelets.
Between two measurements, the plate is shaking for 40 seconds at 1,000 rpm.

[4] = system: guinea pig platelet rich plasma; assay: Inhibition of guinea pig platelet aggregation induced by ADP (PRP); format: cell-based; conditions: for IC50: guinea pig PRP
Excerpt: 1.1 In Vitro Test for Inhibition of Guinea Pig Platelet Aggregation Induced by ADP
Addition of adenosine diphosphate (ADP) to human or guinea pig platelet rich plasma (PRP) in vitro induces platelet aggregation. This aggregation can be assessed by measuring the change in optical density (OD) of the PRP. The following in vitro test was used to evaluate the test compound for interference with the ADP-induced aggregation of guinea pigs.
Platelet rich plasma (PRP): Free-flowing blood is taken from a healthy volunteer or a guinea pig and collected in 0.1 volume sodium citrate.2H2O, 3.8% in distilled H2O (w/v). The final concentration is 0.38% sodium citrate. The citrated blood is centrifuged at 1,600 N/kg (160 g, i.e., 900 rpm in a Hettich Rotanta/AP at room temperature. After 15 minutes centrifugation is discontinued with brake turned off, and the supernatant (=PRP) is collected. A fresh solution of ADP (analytical grade), 50 μM in 0.9% NaCl in MQ water, is used immediately.
The platelets in the supernatant (PRP) are counted using a Sysmex blood cell counter and the supernatant is diluted with PPP (platelet poor plasma) to obtain a PRP containing approximately 400,000±50,000 plt/mL. PRP should stabilize at room temperature for at least 20 min but not longer than 3 h.
150 μL PRP is pipetted into a well of the microplate. 30 μL test compound in a range of concentrations (7 concentrations per compound) or vehicle is added and the microplate is placed in the Labsystems iEMS reader MF at 37° C. The optical density (OD620) is then measured at 620 nm. After shaking for 2 minutes in the reader (1,000 rpm), the OD is measured for the second time. This is to verify the stability of the platelets (absence of spontaneous platelet aggregation). Then, 20 μL of 50 μM ADP solution is added and the OD is kinetically measured every minute for 14 minutes at 620. Between two measurements, the plate is shaking for 40 seconds at 1,000 rpm. Each test compound is investigated in at least 2 experiments using PRP from different volunteers.
as §1
The IC50 of the test compound is the concentration at which the ADP-induced platelet aggregation is reduced by 50%. For this, the percentage inhibition values are plotted against compound concentration and the IC50 is calculated using Graphpad Prism 3.0 (with variable slope).
As performed in above described protocol for ADP-induced platelet aggregation. […] Before inducing the guinea pig platelet aggregation by adding ADP, compound and avidin (from egg white, Sigma) in different concentrations were pre-incubated for 2 minutes at room temperature (FIGS. 1 and 2).

[5] = system: factor Xa; assay: Anti-factor Xa activity in human plasma (amidolytic, S2222); format: biochemical; conditions: against calibration curve of standard heparin
Protocol: 1.3 In Vitro Test for Determination of the Anti-Factor Xa Activity in Human Plasma
The anti-factor Xa activity of the tested compounds in human plasma were measured amidolytically with S2222 (Chromogenix, Chromogenics Ltd, Molndal, Sweden) using the method described by Teien and Lie. (Teien A N, Lie M. Evaluation of an amidolytic heparin assay method increased sensitivity by adding purified antithrombin III. Thromb. Res. 1977, 10: 399-410). The anti-Xa activity is expressed in U/μmol after comparison of the amidolytic activity with a calibration curve of standard heparin.

[6] = 100 nmol/kg s.c., + avidin 10 mg/kg i.v. at t = 4 h
[7] = 100 nmol/kg s.c., without avidin
[8] = 75 nmol/kg s.c., + avidin 10 mg/kg i.v. at t = 4 h
[9] = 75 nmol/kg s.c., without avidin

SMILES	IC50 [1] [nM]	% inhibition [2, 6] [%]	% remaining platelets [2, 6] [%]	No. of platelets t = 0 [2, 6]	No. of platelets t = 90 sec [2, 6]	% remaining platelets [2, 7] [%]	No. of platelets t = 0 [2, 7]	No. of platelets t = 90 sec [2, 7]	neutralization of the platelet inhibitory activity by avidin [2]	IC50 [3] [nM]	concentration at which maximal inhibition of the guinea pig platelet aggregation is achieved [4] [nM]	IC50 [4] [nM]	Anti-Xa U/μmol Human plasma pH 7.4 [5] [U/μmol]	also measured
CO[C@H]1O[C@H](COS(=O)(=O)O)[C@@H](O[C@@H]2O[C@@H](C(=O)O)[C@@H](O[C@H]3O[C@H](COS(=O)(=O)O)[C@@H](O[C@@H]4O[C@H](C(=O)O)[C@@H](O[C@H]5O[C@H](COS(=O)(=O)O)[C@@H](OCCOCCOCCOCCNC(=O)COCCOCCOCCOCCNC(=O)c6cccc(S(=O)(=O)N[C@@H](Cc7ccc(OCCCCC8CCNCC8)cc7)C(=O)O)c6)[C@H](OC)[C@H]5OC)[C@H](OC)[C@H]4OC)[C@H](OS(=O)(=O)O)[C@H]3OS(=O)(=O)O)[C@H](OC)[C@H]2OC)[C@H](OS(=O)(=O)O)[C@H]1OS(=O)(=O)O [Compound 12, sodium salt, reference compound]	92	74 ± 3	86.5 ± 1.7	379 ± 6	329 ± 11	84.5 ± 2.2	426 ± 6	360 ± 7	not	65	225	127	1392	% inhibition ([2]; 100 nmol/kg s.c., 4 hours after administration, without avidin, sodium salt): 70 ± 4%
CO[C@H]1O[C@H](COS(=O)(=O)O)[C@@H](O[C@@H]2O[C@@H](C(=O)O)[C@@H](O[C@H]3O[C@H](COS(=O)(=O)O)[C@@H](O[C@@H]4O[C@H](C(=O)O)[C@@H](O[C@H]5O[C@H](COS(=O)(=O)O)[C@@H](OCCOCCOCCOCCNC(=O)[C@H](CCCCNC(=O)C[C@H](NC(=O)CCCC[C@@H]6SC[C@@H]7NC(=O)N[C@@H]76)C(=O)O)NC(=O)COCCOCCOCCOCCNC(=O)c6cccc(S(=O)(=O)N[C@@H](Cc7ccc(OCCCCC8CCNCC8)cc7)C(=O)O)c6)[C@H](OC)[C@H]5OC)[C@H](OC)[C@H]4OC)[C@H](OS(=O)(=O)O)[C@H]3OS(=O)(=O)O)[C@H](OC)[C@H]2OC)[C@H](OS(=O)(=O)O)[C@H]1OS(=O)(=O)O [Compound 17, sodium salt]	49	−5 ± 15	46.5 ± 7.8	367 ± 16	181 ± 12	82.5 ± 2.0	424 ± 11	348 ± 7	immediate and quantitative neutralization	74		66	1411	
CO[C@H]1O[C@H](COS(=O)(=O)O)[C@@H](O[C@@H]2O[C@@H](C(=O)O)[C@@H](O[C@H]3O[C@H](COS(=O)(=O)O)[C@@H](O[C@@H]4O[C@H](C(=O)O)[C@@H](O[C@H]5O[C@H](COS(=O)(=O)O)[C@@H](OCCOCCOCCOCCNC(=O)[C@H](CCCCNC(=O)CCCC[C@@H]6SC[C@@H]7NC(=O)N[C@@H]76)NC(=O)COCCOCCOCCOCCNC(=O)c6cccc(S(=O)(=O)N[C@@H](Cc7ccc(OCCCCC8CCNCC8)cc7)C(=O)O)c6)[C@H](OC)[C@H]5OC)[C@H](OC)[C@H]4OC)[C@H](OS(=O)(=O)O)[C@H]3OS(=O)(=O)O)[C@H](OC)[C@H]2OC)[C@H](OS(=O)(=O)O)[C@H]1OS(=O)(=O)O [Compound 10, sodium salt]	74								immediate and quantitative neutralization	72	450	225	927	No. of platelets t = 0 ([2]; 75 nmol/kg s.c., 4 h before collagen, without avidin): 386 ± 31; % inhibition ([2]; 75 nmol/kg s.c., 4 hours after administration, without avidin, sodium salt): 76 ± 4%; % inhibition [2, 8]: 2 ± 13%; % remaining platelets [2, 8]: 40.4 ± 7.8%; No. of platelets t = 0 [2, 8]: 384 ± 20; No. of platelets t = 90 sec [2, 8]: 152 ± 26; % remaining platelets [2, 9]: 85.3 ± 2.5%; No. of platelets t = 90 sec [2, 9]: 328 ± 18
